These molecules were tested against T1, human PTHR1 receptor (Homo sapiens, UniProt Q03431) (assay: Competitive antagonist binding assay for hPTH-R1 (radioactive competition binding, SPA beads)). Settings: human PTHR1 membranes, [125I]-[Nle8,18,Tyr34]-PTH(1-34) 0.2 nM, 90 minutes at room temperature; read-out: hPTHR1 Ki.
T1 construct: purchased Eurofins HTS030M
T1 sequence (Q03431 27-593): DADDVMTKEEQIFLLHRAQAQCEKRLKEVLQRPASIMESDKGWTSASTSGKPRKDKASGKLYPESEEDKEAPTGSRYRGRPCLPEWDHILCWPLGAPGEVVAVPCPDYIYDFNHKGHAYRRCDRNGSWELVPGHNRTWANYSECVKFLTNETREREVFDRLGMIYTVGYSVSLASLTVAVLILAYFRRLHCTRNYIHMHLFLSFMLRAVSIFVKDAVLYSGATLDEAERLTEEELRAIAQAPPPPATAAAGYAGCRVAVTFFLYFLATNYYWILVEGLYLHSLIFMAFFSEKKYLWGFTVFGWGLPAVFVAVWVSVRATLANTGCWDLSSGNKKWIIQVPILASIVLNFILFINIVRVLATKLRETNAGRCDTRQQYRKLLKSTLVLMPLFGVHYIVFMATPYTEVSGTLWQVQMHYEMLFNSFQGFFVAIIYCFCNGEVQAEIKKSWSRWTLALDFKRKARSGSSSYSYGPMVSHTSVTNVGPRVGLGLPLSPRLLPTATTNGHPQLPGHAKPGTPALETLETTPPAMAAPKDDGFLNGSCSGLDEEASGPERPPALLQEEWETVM
Method in brief: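 Human PTHR1 membranes on SPA beads incubated 90 min at room temperature with compound (typically 0-10,000 nM final) and 0.2 nM [125I]-[Nle8,18,Tyr34]-PTH(1-34) in HEPES buffer with MgCl2, CaCl2, BSA, Triton X-100 and protease inhibitors, pH 7.4. Scintillation signal read; Ki values derived.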

Row | Compound | Ki [nM]
1 | CCN1C(=O)N(c2c(F)cc(NC[C@@H]3COCCN3)cc2F)c2cc(C#N)ccc2-c2cc(Cl)cnc21 [1-151, 4-chloro-10-[2,6-difluoro-4-({[(3R)-morpholin-3-yl]methyl}amino)phenyl]-8-ethyl-9-oxo-6,8,10-triazatricyclo[9.4.0.0^2,7]pentadeca-1(11),2(7),3,5,12,14-hexaene-13-carbonitrile] | < 100
2 | CCN1C(=O)N(c2c(F)cc(N3CCN[C@H](CO)C3)cc2F)c2cc(C#N)ccc2-c2cc(Cl)cnc21 [1-152, 4-chloro-10-{2,6-difluoro-4-[(3S)-3-(hydroxymethyl)piperazin-1-yl]phenyl}-8-ethyl-9-oxo-6,8,10-triazatricyclo[9.4.0.0^2,7]pentadeca-1(11),2(7),3,5,12,14-hexaene-13-carbonitrile] | 100 to 1000
3 | CCN1C(=O)N(c2c(F)cc(N3CCN[C@@H](CO)C3)cc2F)c2cc(C#N)ccc2-c2cc(Cl)cnc21 [1-153, 4-chloro-10-{2,6-difluoro-4-[(3R)-3-(hydroxymethyl)piperazin-1-yl]phenyl}-8-ethyl-9-oxo-6,8,10-triazatricyclo[9.4.0.0^2,7]pentadeca-1(11),2(7),3,5,12,14-hexaene-13-carbonitrile] | < 100
4 | CCN1C(=O)N(c2c(F)cc(NCCNCCC#N)cc2F)c2cc(C#N)ccc2-c2cc(Cl)cnc21 [1-154, 4-chloro-10-[4-({2-[(2-cyanoethyl)amino]ethyl}amino)-2,6-difluorophenyl]-8-ethyl-9-oxo-6,8,10-triazatricyclo[9.4.0.0^2,7]pentadeca-1(11),2(7),3,5,12,14-hexaene-13-carbonitrile] | < 100
5 | CCN1C(=O)N(c2c(F)cc(NCCN3CCNCC3)cc2F)c2cc(C#N)ccc2-c2cc(Cl)cnc21 [1-155, 4-chloro-10-(2,6-difluoro-4-{[2-(piperazin-1-yl)ethyl]amino}phenyl)-8-ethyl-9-oxo-6,8,10-triazatricyclo[9.4.0.0^2,7]pentadeca-1(11),2(7),3,5,12,14-hexaene-13-carbonitrile] | < 100
6 | CCN1C(=O)N(c2c(F)cc(NCCNCC(O)CO)cc2F)c2cc(C#N)ccc2-c2cc(Cl)cnc21 (stereo not shown) [1-156, 4-chloro-10-[4-({2-[(2,3-dihydroxypropyl)amino]ethyl}amino)-2,6-difluorophenyl]-8-ethyl-9-oxo-6,8,10-triazatricyclo[9.4.0.0^2,7]pentadeca-1(11),2(7),3,5,12,14-hexaene-13-carbonitrile] | < 100
7 | CCN1C(=O)N(c2c(F)cc(NCCNC(CO)CO)cc2F)c2cc(C#N)ccc2-c2cc(Cl)cnc21 [1-157, 4-chloro-10-[4-({2-[(1,3-dihydroxypropan-2-yl)amino]ethyl}amino)-2,6-difluorophenyl]-8-ethyl-9-oxo-6,8,10-triazatricyclo[9.4.0.0^2,7]pentadeca-1(11),2(7),3,5,12,14-hexaene-13-carbonitrile] | < 100
8 | CCN1C(=O)N(c2c(F)cc(NCC3(CO)CNC3)cc2F)c2cc(C#N)ccc2-c2cc(Cl)cnc21 [1-158, 4-chloro-10-[2,6-difluoro-4-({[3-(hydroxymethyl)azetidin-3-yl]methyl}amino)phenyl]-8-ethyl-9-oxo-6,8,10-triazatricyclo[9.4.0.0^2,7]pentadeca-1(11),2(7),3,5,12,14-hexaene-13-carbonitrile] | 100 to 1000
9 | CCN1C(=O)N(c2c(F)cc(N[C@H](C)CNC)cc2F)c2cc(C#N)ccc2-c2cc(Cl)cnc21 [1-159, 4-chloro-10-(2,6-difluoro-4-{[(2R)-1-(methylamino)propan-2-yl]amino}phenyl)-8-ethyl-9-oxo-6,8,10-triazatricyclo[9.4.0.0^2,7]pentadeca-1(11),2(7),3,5,12,14-hexaene-13-carbonitrile] | < 100
10 | CCN1C(=O)N(c2c(F)cc(NCCNCC#N)cc2F)c2cc(C#N)ccc2-c2cc(Cl)cnc21 [1-160, 4-chloro-10-[4-({2-[(cyanomethyl)amino]ethyl}amino)-2,6-difluorophenyl]-8-ethyl-9-oxo-6,8,10-triazatricyclo[9.4.0.0^2,7]pentadeca-1(11),2(7),3,5,12,14-hexaene-13-carbonitrile] | 100 to 1000

From patent US20230159532A1, “PARATHYROID HORMONE (PTH) RECEPTOR ANTAGONISTS AND USES THEREOF” (Crinetics Pharmaceuticals, Inc., priority 2021, published 2023)
